Key:
[1] = target: T1, MYC:MAX heterodimer (MYCbHLHZip over immobilized MAXbHLHZip) (Homo sapiens, UniProt P01106); assay: Assay 1B MYC:MAX SPR heterodimer formation assay; type: binding; details: 100 nM MYCbHLHZip pre-mixed with compound, 25° C.
T1 construct: MYC:MAX heterodimer formation assay based on recombinant proteins
Description: FIG. 1: A) Microscale thermophoresis (MST) of fluorescently labeled MAX in a MYC:MAX heterodimer formation assay based on recombinant proteins. MST of labeled MAXbHLHZip after titration of Example 1 pre-incubated with 1 μM MYCbHLHZip, or with 1 μM MAXbHLHZip. Fluorescence intensity of labeled MAXbHLHZip relative DMSO was plotted against Example 1 concentration. B) Surface plasmon resonance (SPR) of MYC:MAX heterodimer formation assay. MAXbHLHZip was immobilized by an amino coupling procedure to a CM5 sensor chip. MYCbHLHZip pre-incubated with or without compound (as indicated) was injected over MAX for 180 seconds, allowed to dissociate for 240 seconds and regenerated. Reference surface (without MAXbHLHZip) subtracted sensorgrams are shown from one representative experiment. C) MYC binding response units (RU) plotted against Example 1 concentration from which an IC50 of Example 1 inhibition of MYC:MAX heterodimer formation is determined, summary of four experiments.
Assay 1B. Surface Plasmon Resonance (SPR)
The SPR method is a highly sensitive assay to determine the affinity between protein and ligand and to measure the kinetics of the interaction (see Handbook of Surface Plasmon Resonance 2nd edition, Richard B M Schasfoort (Editor), RSC 2017, ca. 500 p., hardcover, ISBN 978-1-78262-730-2). […]

[2] = target: T2, endogenous MYC:MAX interaction in MDA-MB231 cells (Homo sapiens, UniProt P01106); assay: Assay 3A isPLA assay, MYC:MAX; type: cell-based
T2 construct: endogenous in cells; host or cells: MDA-MB231
Source text: FIG. 4: A) Endogenous MYC:MAX (upper panel) and FRA1:JUN (lower panel) interactions as visualized as fluorescent red dots by isPLA. Nuclei were counterstained with DAPI (blue). […] As negative control, primary antibody pairs but only one oligo-conjugated secondary antibody was used. B) Quantification of MYC:MAX and C) FRA1:JUN isPLA, representing an average number of nuclear dots per cell from three microscopic fields normalized to corresponding values for DMSO-treated cells. […] 1st-4th lanes from top; coimmunoprecipitated MAX, immunoprecipitated MYC, total levels of MAX and ACTIN, respectively, as determined by western blot analysis. E) MYC:MAX GLuc assay in cells. […] 24 hours later cells were treated with […] of Example 1, Example 2 and control compound for 16 hours and thereafter analyzed in a dual luciferase assay. The ratio of Gaussia/Firefly luciferase luminescence were calculated and normalized to DMSO-treated cells.
Assay 3A: The isPLA Assay
(§1) Identification of endogenous protein-protein interactions in fixed cells and has been described (Soderberg, O. et al., Nat Methods, 3, 995-1000 (2006)). […] Endogenous MYC:MAX or FRA-1:JUN protein interactions were visualized by fluorescence microscopy as fluorescent dots mainly localized in the cell nucleus. […]

[3] = target: T3, FRA1:JUN interaction in MDA-MB231 cells (Homo sapiens, UniProt P05412+P15407); assay: Assay 3A isPLA assay, FRA1:JUN; type: cell-based; details: 10 μM
T3 construct: endogenous in cells; host or cells: MDA-MB231
Description: (§2) FIG. 4: A) Endogenous MYC:MAX (upper panel) and FRA1:JUN (lower panel) interactions as visualized as fluorescent red dots by isPLA. Nuclei were counterstained with DAPI (blue). Cells were treated with 10 μM of indicated compounds for 16 hours and subjected to isPLA using pairs of MYC and MAX and of FRA1 and JUN antibodies, respectively. As negative control, primary antibody pairs but only one oligo-conjugated secondary antibody was used. B) Quantification of MYC:MAX and C) FRA1:JUN isPLA, representing an average number of nuclear dots per cell from three microscopic fields normalized to corresponding values for DMSO-treated cells. […] 1st-4th lanes from top; coimmunoprecipitated MAX, immunoprecipitated MYC, total levels of MAX and ACTIN, respectively, as determined by western blot analysis. E) MYC:MAX GLuc assay in cells. […] 24 hours later cells were treated with […] of Example 1, Example 2 and control compound for 16 hours and thereafter analyzed in a dual luciferase assay. The ratio of Gaussia/Firefly luciferase luminescence were calculated and normalized to DMSO-treated cells.
as §1

[4] = target: T4, endogenous MYC:MAX in MDA-MB231 cells (Homo sapiens, UniProt P01106); assay: Assay 3B CoIP of endogenous MAX with MYC; type: cell-based
T4 construct: endogenous in cells; host or cells: MDA-MB231
Description: as §2
Coimmunoprecipitation of endogenous MYC:MAX proteins were essentially carried out as in Bahram, F. et al. Interferon-gamma-induced p27KIP1 binds to and targets MYC for proteasome-mediated degradation. Oncotarget 7, 2837-2854, doi:10.18632/oncotarget.6693 (2016). […]

T4 sequence (P01106 whole entry): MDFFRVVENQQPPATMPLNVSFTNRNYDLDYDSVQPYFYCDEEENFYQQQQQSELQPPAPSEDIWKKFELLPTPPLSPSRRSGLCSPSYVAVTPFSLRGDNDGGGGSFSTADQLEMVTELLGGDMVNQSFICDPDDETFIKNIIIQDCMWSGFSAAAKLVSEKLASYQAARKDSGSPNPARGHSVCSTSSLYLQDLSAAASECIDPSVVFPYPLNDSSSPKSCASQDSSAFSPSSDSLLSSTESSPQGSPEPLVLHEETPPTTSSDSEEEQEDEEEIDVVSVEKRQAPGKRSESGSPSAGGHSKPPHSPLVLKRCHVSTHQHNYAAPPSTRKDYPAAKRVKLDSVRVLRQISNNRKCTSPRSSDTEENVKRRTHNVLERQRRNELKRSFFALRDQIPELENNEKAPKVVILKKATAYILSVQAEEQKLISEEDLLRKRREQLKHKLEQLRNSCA
T2 sequence (P01106 whole entry): as above
T1 sequence (P01106 368-449 limits assumed, one chain of several): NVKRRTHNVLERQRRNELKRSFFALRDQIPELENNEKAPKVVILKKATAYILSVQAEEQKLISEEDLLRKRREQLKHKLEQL
T3 sequence (P15407 whole entry): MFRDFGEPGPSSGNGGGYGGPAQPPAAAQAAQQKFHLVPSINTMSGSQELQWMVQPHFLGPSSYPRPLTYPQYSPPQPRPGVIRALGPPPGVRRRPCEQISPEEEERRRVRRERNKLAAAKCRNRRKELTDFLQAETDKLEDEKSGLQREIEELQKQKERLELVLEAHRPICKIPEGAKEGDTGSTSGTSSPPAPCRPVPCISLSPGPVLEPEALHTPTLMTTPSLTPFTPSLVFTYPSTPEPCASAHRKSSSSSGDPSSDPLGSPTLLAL
T3 sequence (P05412 whole entry): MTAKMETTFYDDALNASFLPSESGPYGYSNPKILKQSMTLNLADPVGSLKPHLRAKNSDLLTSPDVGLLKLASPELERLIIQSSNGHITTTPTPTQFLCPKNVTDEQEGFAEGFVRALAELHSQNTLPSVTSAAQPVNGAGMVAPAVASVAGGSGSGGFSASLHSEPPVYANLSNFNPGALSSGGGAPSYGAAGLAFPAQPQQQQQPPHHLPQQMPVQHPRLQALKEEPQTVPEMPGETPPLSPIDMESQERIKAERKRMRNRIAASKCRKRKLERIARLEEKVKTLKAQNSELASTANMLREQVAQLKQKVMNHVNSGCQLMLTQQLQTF

**Q.** `CCOc1ccc2nc3cc(/N=N/c4ccc(N)nc4N)ccc3c(N)c2c1` [Example 1, 3-((9-amino-7-ethoxyacridin-3-yl)diazenyl)pyridine-2,6-diamine sulphate hydrate] was tested. Which IC50 [1] did it give?
**A.** Its IC50 is 3.8 µM.

**Q.** And the “isPLA signals, % of DMSO control” value ([2]; 10 μM, 24 hours)?
**A.** Its value is 7%.

**Q.** And the inhibition at 10 µM ([2]; MDA-MB-231)?
**A.** The inhibition at 10 µM was 95%.

**Q.** And the “effect on FRA1:JUN interaction (isPLA)” value [3]?
**A.** The value was “not affecting”.

**Q.** And the “reduction of MYC:MAX protein interaction vs DMSO treated cells (CoIP)” value ([4]; 5 μM, 3.5 hours)?
**A.** The value was “More than Half”.

**Q.** And the inhibition at 5 µM ([4]; MDA-MB-231, read-out: CoIP inhibition at 10 μM)?
**A.** The inhibition at 5 µM was over 70%.

From patent publication US11896589B2, “Diazinyl amino acridines and medical uses thereof” (MyCural Therapeutics AB, priority 2018, dated 2024)
